Each structure is given as a SMILES string.

In the assay the test system is mouse FSGS model (adriamycin-induced, BALB/c mice). Kind of assay: Mouse FSGS model: urine protein and renal function (serum BUN, Cr). Particulars: Citral 200 mg/kg daily by gavage. Format: in vivo. On the procedure:
A progressive type of mouse FSGS model was used, particularly characterized by EPHLs, a key histopathology index of progression of FSGS, peri-glomerular inflammation, and progressive glomerular hyalinosis/sclerosis. The FSGS model was induced in 8-week-old male BALB/c mice (National Laboratory Animal Center, Taipei, Taiwan) by intravenous injection of a single dose of adriamycin (0.10 mg/10 g body weight) (Pfizer, New York, N.Y.) as described previously. […] Age- and sex-matched BALB/c mice were used as normal controls. Urine samples were collected in metabolic cages on days 3, 7, 14, 21, and 28. Renal cortical tissues and blood samples were collected when the mice were sacrificed and stored appropriately for further analysis. The concentration of urine protein was determined using BCA kits (Pierce, Rockford, Ill.) as described previously and normalized to urine creatinine (Cr) levels measured using kits (Wako Pure Chemical Industries, Osaka, Japan), as described previously. Serum levels of blood urea nitrogen (BUN) and Cr were determined using BUN kits and Cr kits (both from Fuji Dry-Chem Slide, Fuji Film Medical, Tokyo, Japan), as described previously. Urine and blood samples were collected from the mice at different time points, which were analyzed for proteinuria and blood urea nitrogen (BUN) and creatinine (Cr) levels by using a urease assay and a picric acid method respectively (Nephron 1998; 78: 440-452).

As for `CC(C)=CCCC(C)=CC=O` (racemic) [Citral, 3,7-dimethyl-2,6-octadienal], the “proteinuria (urine protein)” value by setting is: (day 14, FSGS+Citral vs FSGS+vehicle mice) “slightly inhibited”; (day 21, vs FSGS+vehicle mice, p<0.005) “markedly inhibited”; (day 28, vs FSGS+vehicle mice, p<0.01) “markedly inhibited”. Also, the “serum levels of BUN” value (days 14 and 28, p<0.05) was “almost, or completely, suppressed”. Where the note is “days 14 and 28, p<0.05”, the “serum levels of Cr” value is recorded as “almost, or completely, suppressed”.

Values taken from US8993637B2 (priority 2013, dated 2015).
